The text below walks through data of publication PMC6409644, “The Inhibitory Effect of Celangulin V on the ATP Hydrolytic Activity of the Complex of V-ATPase Subunits A and B in the Midgut of Mythimna separata” (Toxins, 2019).

The target in series [1] is T1, V-ATPase subunit A (TSCA mutant) in complex with subunit B (Mythimna separata, UniProt A0A0U1XFD8+A0AAD8DTT7, A0AAD8DTT7:C254A/A0AAD8DTT7:T257S).
T1 construct: gene PYW07_012492; with V-ATPase subunit B
As to the kind of experiment: inhibition of ATP hydrolysis (inorganic phosphate release) by the purified complex; IC50 […], Ki calculated; CV was a suspension. The class given is biochemical.

For series [2], the system named is T2, Nc1ncnc2c1ncn2[C@@H]1O[C@H](COP(=O)(O)OP(=O)(O)OP(=O)(O)O)[C@@H](O)[C@H]1O.
T2 construct: with V-ATPase subunit B
As to the kind of experiment: ATP hydrolysis kinetics (inorganic phosphate release), Lineweaver–Burk Km. The class given is biochemical, Mythimna separata. The conditions noted are these: Mg2+ ([…] MgCl2) ATP binding site of the AB complex (by docking: D416, D436, K437, K438 of subunit A and T439 of subunit B).

T1 sequence (A0AAD8DTT7 1-617, stated change not applied): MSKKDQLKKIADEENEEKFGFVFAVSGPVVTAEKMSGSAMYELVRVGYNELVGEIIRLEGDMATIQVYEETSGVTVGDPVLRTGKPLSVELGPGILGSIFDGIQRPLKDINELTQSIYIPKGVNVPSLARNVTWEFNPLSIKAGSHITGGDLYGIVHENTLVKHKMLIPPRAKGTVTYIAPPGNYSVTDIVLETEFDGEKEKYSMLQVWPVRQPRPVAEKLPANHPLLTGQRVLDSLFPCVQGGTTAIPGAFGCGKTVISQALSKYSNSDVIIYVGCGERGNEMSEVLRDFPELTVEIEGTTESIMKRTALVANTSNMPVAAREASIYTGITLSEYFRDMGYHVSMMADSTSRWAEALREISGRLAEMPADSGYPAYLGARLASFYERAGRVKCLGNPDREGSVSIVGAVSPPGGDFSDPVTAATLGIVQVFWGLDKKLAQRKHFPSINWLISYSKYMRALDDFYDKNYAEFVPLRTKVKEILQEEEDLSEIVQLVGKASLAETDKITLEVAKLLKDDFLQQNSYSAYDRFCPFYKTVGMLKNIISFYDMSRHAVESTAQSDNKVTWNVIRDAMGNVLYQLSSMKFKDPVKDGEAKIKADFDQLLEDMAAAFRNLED
T1 sequence (A0A0U1XFD8 1-497): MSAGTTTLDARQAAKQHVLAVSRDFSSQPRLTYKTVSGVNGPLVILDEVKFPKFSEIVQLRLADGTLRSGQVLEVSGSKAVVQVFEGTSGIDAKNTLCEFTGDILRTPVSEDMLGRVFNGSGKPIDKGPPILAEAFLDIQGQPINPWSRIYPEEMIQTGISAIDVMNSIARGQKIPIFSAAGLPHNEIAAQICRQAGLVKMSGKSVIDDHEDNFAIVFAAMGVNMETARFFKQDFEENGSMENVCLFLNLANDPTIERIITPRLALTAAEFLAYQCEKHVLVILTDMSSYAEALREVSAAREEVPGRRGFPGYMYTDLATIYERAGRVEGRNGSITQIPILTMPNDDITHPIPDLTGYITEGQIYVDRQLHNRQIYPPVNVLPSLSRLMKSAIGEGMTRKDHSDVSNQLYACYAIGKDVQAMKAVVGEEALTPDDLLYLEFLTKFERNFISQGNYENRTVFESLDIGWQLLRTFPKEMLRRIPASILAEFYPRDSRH

For `CC(=O)O[C@H]1C[C@](C)(O)C23OC(C)(C)[C@H]([C@H](OC(=O)C(C)C)[C@@H](OC(=O)c4ccccc4)[C@]2(COC(=O)C(C)C)[C@H]1OC(C)=O)[C@H]3O` [CV, Celangulin V], the Ki (commonly the equilibrium dissociation constant of an inhibitor or competing ligand from its target) in series [1] was 10 µM.
As to “V-ATPase subunit A (TSCA mutant) in complex with subunit B (Mythimna separata; A0AAD8DTT7:C254A/A0AAD8DTT7:T257S)”, the Km – broadly, the concentration of substrate that gives half-maximal velocity – in series [2] came to 268 µM.
